Test system: Staphylococcus
Experiment: Antibacterial activity against Staphylococcus albus NCIM 2178 after 18 hr by disk diffusion method; note: test concentration or dose not given here
Format: functional
In the case of `CC12CCC(C/C1=N/NC(=O)Nn1c(-c3ccccc3)nc3ccccc3c1=O)C2(C)C` (centres undefined), the “diameter of the inhibition zone (DIZ)” value was 12 mm.
In the case of `O=C(NN=C(c1ccccc1)c1ccccc1)Nn1c(-c2ccccc2)nc2ccccc2c1=O`, the “diameter of the inhibition zone (DIZ)” value was 10 mm.
With `O=C(N/N=C1/C(=O)Nc2ccccc21)Nn1c(-c2ccccc2)nc2ccccc2c1=O` the “diameter of the inhibition zone (DIZ)” value was 13 mm.

Test system: not listed separately
Experiment: Solubility of the compound in DMF
Format: physicochemical
In the case of `CC12CCC(C/C1=N/NC(=O)Nn1c(-c3ccccc3)nc3ccccc3c1=O)C2(C)C` (centres undefined), the solubility was “soluble”.
In the case of `O=C(NN=C(c1ccccc1)c1ccccc1)Nn1c(-c2ccccc2)nc2ccccc2c1=O`, the solubility was “soluble”.
For `O=C(N/N=C1/C(=O)Nc2ccccc21)Nn1c(-c2ccccc2)nc2ccccc2c1=O`, the solubility was “soluble”.

Test system: not listed separately
Experiment: Solubility of the compound in dilute acids
Format: physicochemical
For `CC12CCC(C/C1=N/NC(=O)Nn1c(-c3ccccc3)nc3ccccc3c1=O)C2(C)C` (centres undefined), the solubility was “Insoluble”.
With `O=C(NN=C(c1ccccc1)c1ccccc1)Nn1c(-c2ccccc2)nc2ccccc2c1=O` the solubility was “Insoluble”.
In the case of `O=C(N/N=C1/C(=O)Nc2ccccc21)Nn1c(-c2ccccc2)nc2ccccc2c1=O`, the solubility was “soluble”.

Test system: not listed separately
Experiment: Solubility of the compound in water
Format: physicochemical
With `CC12CCC(C/C1=N/NC(=O)Nn1c(-c3ccccc3)nc3ccccc3c1=O)C2(C)C` (centres undefined) the solubility was “Insoluble”.
In the case of `O=C(NN=C(c1ccccc1)c1ccccc1)Nn1c(-c2ccccc2)nc2ccccc2c1=O`, the solubility was “Insoluble”.
With `O=C(N/N=C1/C(=O)Nc2ccccc21)Nn1c(-c2ccccc2)nc2ccccc2c1=O` the solubility was “Insoluble”.

Test system: Klebsiella aerogenes
Experiment: Antibacterial activity against Enterobacter aerogenesNCIM 2075 after 18 hr by disk diffusion method; note: test concentration or dose not given here
Format: functional, NCIM 2075
With `CC12CCC(C/C1=N/NC(=O)Nn1c(-c3ccccc3)nc3ccccc3c1=O)C2(C)C` (centres undefined) the “diameter of the inhibition zone (DIZ)” value was 16 mm.
With `O=C(NN=C(c1ccccc1)c1ccccc1)Nn1c(-c2ccccc2)nc2ccccc2c1=O` the “diameter of the inhibition zone (DIZ)” value was 15 mm.
In the case of `O=C(N/N=C1/C(=O)Nc2ccccc21)Nn1c(-c2ccccc2)nc2ccccc2c1=O`, the “diameter of the inhibition zone (DIZ)” value was 17 mm.

Test system: Escherichia coli
Experiment: Antibacterial activity against Escherichia coli NCIM 2065 after 18 hr by disk diffusion method; note: test concentration or dose not given here
Format: functional
With `CC12CCC(C/C1=N/NC(=O)Nn1c(-c3ccccc3)nc3ccccc3c1=O)C2(C)C` (centres undefined) the “diameter of the inhibition zone (DIZ)” value was 18 mm.
For `O=C(NN=C(c1ccccc1)c1ccccc1)Nn1c(-c2ccccc2)nc2ccccc2c1=O`, the “diameter of the inhibition zone (DIZ)” value was 21 mm.
For `O=C(N/N=C1/C(=O)Nc2ccccc21)Nn1c(-c2ccccc2)nc2ccccc2c1=O`, the “diameter of the inhibition zone (DIZ)” value was 21 mm.

Test system: not listed separately
Experiment: Solubility of the compound in benzene
Format: physicochemical
For `CC12CCC(C/C1=N/NC(=O)Nn1c(-c3ccccc3)nc3ccccc3c1=O)C2(C)C` (centres undefined), the solubility was “Insoluble”.
In the case of `O=C(NN=C(c1ccccc1)c1ccccc1)Nn1c(-c2ccccc2)nc2ccccc2c1=O`, the solubility was “soluble”.
For `O=C(N/N=C1/C(=O)Nc2ccccc21)Nn1c(-c2ccccc2)nc2ccccc2c1=O`, the solubility was “soluble”.

Test system: Candida albicans
Experiment: Antifungal activity against Candida albicans NCIM 0707 after 18 hr by disk diffusion method; note: test concentration or dose not given here
Format: functional
For `CC12CCC(C/C1=N/NC(=O)Nn1c(-c3ccccc3)nc3ccccc3c1=O)C2(C)C` (centres undefined), the “diameter of the inhibition zone (DIZ)” value was 20 mm.
In the case of `O=C(NN=C(c1ccccc1)c1ccccc1)Nn1c(-c2ccccc2)nc2ccccc2c1=O`, the “diameter of the inhibition zone (DIZ)” value was 25 mm.
With `O=C(N/N=C1/C(=O)Nc2ccccc21)Nn1c(-c2ccccc2)nc2ccccc2c1=O` the “diameter of the inhibition zone (DIZ)” value was 22 mm.

Test system: not listed separately
Experiment: Solubility of the compound in ethanol
Format: physicochemical
In the case of `CC12CCC(C/C1=N/NC(=O)Nn1c(-c3ccccc3)nc3ccccc3c1=O)C2(C)C` (centres undefined), the solubility was “soluble”.
In the case of `O=C(NN=C(c1ccccc1)c1ccccc1)Nn1c(-c2ccccc2)nc2ccccc2c1=O`, the solubility was “soluble”.
In the case of `O=C(N/N=C1/C(=O)Nc2ccccc21)Nn1c(-c2ccccc2)nc2ccccc2c1=O`, the solubility was “soluble”.

Test system: Proteus vulgaris
Experiment: Antibacterial activity against Proteus vulgaris NCIM 2239 after 18 hr by disk diffusion method; note: test concentration or dose not given here
Format: functional
In the case of `CC12CCC(C/C1=N/NC(=O)Nn1c(-c3ccccc3)nc3ccccc3c1=O)C2(C)C` (centres undefined), the “diameter of the inhibition zone (DIZ)” value was 17 mm.
In the case of `O=C(NN=C(c1ccccc1)c1ccccc1)Nn1c(-c2ccccc2)nc2ccccc2c1=O`, the “diameter of the inhibition zone (DIZ)” value was 16 mm.
With `O=C(N/N=C1/C(=O)Nc2ccccc21)Nn1c(-c2ccccc2)nc2ccccc2c1=O` the “diameter of the inhibition zone (DIZ)” value was 17 mm.

Test system: not listed separately
Experiment: Solubility of the compound in DMSO
Format: physicochemical
In the case of `CC12CCC(C/C1=N/NC(=O)Nn1c(-c3ccccc3)nc3ccccc3c1=O)C2(C)C` (centres undefined), the solubility was “soluble”.
With `O=C(NN=C(c1ccccc1)c1ccccc1)Nn1c(-c2ccccc2)nc2ccccc2c1=O` the solubility was “soluble”.
With `O=C(N/N=C1/C(=O)Nc2ccccc21)Nn1c(-c2ccccc2)nc2ccccc2c1=O` the solubility was “soluble”.

Test system: not listed separately
Experiment: Solubility of the compound in ethyl acetate
Format: physicochemical
For `CC12CCC(C/C1=N/NC(=O)Nn1c(-c3ccccc3)nc3ccccc3c1=O)C2(C)C` (centres undefined), the solubility was “soluble”.
In the case of `O=C(NN=C(c1ccccc1)c1ccccc1)Nn1c(-c2ccccc2)nc2ccccc2c1=O`, the solubility was “soluble”.
For `O=C(N/N=C1/C(=O)Nc2ccccc21)Nn1c(-c2ccccc2)nc2ccccc2c1=O`, the solubility was “soluble”.

Test system: Salmonella paratyphi
Experiment: Antibacterial activity against Salmonella enterica subsp. enterica serovar Paratyphi A NCIM […] after 18 hr by disk diffusion method
Format: functional
With `CC12CCC(C/C1=N/NC(=O)Nn1c(-c3ccccc3)nc3ccccc3c1=O)C2(C)C` (centres undefined) the “diameter of the inhibition zone (DIZ)” value was 15 mm.
With `O=C(NN=C(c1ccccc1)c1ccccc1)Nn1c(-c2ccccc2)nc2ccccc2c1=O` the “diameter of the inhibition zone (DIZ)” value was 16 mm.
For `O=C(N/N=C1/C(=O)Nc2ccccc21)Nn1c(-c2ccccc2)nc2ccccc2c1=O`, the “diameter of the inhibition zone (DIZ)” value was 16 mm.

Test system: Lederbergia lenta
Experiment: Antibacterial activity against Bacillus lentus NCIM 2018 after 18 hr by disk diffusion method; note: test concentration or dose not given here
Format: functional
In the case of `CC12CCC(C/C1=N/NC(=O)Nn1c(-c3ccccc3)nc3ccccc3c1=O)C2(C)C` (centres undefined), the “diameter of the inhibition zone (DIZ)” value was 17 mm.
With `O=C(NN=C(c1ccccc1)c1ccccc1)Nn1c(-c2ccccc2)nc2ccccc2c1=O` the “diameter of the inhibition zone (DIZ)” value was 17 mm.
With `O=C(N/N=C1/C(=O)Nc2ccccc21)Nn1c(-c2ccccc2)nc2ccccc2c1=O` the “diameter of the inhibition zone (DIZ)” value was 17 mm.

Test system: not listed separately
Experiment: Solubility of the compound in chloroform
Format: physicochemical
In the case of `CC12CCC(C/C1=N/NC(=O)Nn1c(-c3ccccc3)nc3ccccc3c1=O)C2(C)C` (centres undefined), the solubility was “soluble”.
In the case of `O=C(NN=C(c1ccccc1)c1ccccc1)Nn1c(-c2ccccc2)nc2ccccc2c1=O`, the solubility was “soluble”.
In the case of `O=C(N/N=C1/C(=O)Nc2ccccc21)Nn1c(-c2ccccc2)nc2ccccc2c1=O`, the solubility was “soluble”.

Test system: Micrococcus luteus
Experiment: Antibacterial activity against Micrococcus luteus NCIM 2155 after 18 hr by disk diffusion method; note: test concentration or dose not given here
Format: functional
In the case of `CC12CCC(C/C1=N/NC(=O)Nn1c(-c3ccccc3)nc3ccccc3c1=O)C2(C)C` (centres undefined), the “diameter of the inhibition zone (DIZ)” value was 14 mm.
For `O=C(NN=C(c1ccccc1)c1ccccc1)Nn1c(-c2ccccc2)nc2ccccc2c1=O`, the “diameter of the inhibition zone (DIZ)” value was 12 mm.
For `O=C(N/N=C1/C(=O)Nc2ccccc21)Nn1c(-c2ccccc2)nc2ccccc2c1=O`, the “diameter of the inhibition zone (DIZ)” value was 16 mm.

Test system: not listed separately
Experiment: Solubility of the compound in acetic acid
Format: physicochemical
In the case of `CC12CCC(C/C1=N/NC(=O)Nn1c(-c3ccccc3)nc3ccccc3c1=O)C2(C)C` (centres undefined), the solubility was “Insoluble”.
In the case of `O=C(NN=C(c1ccccc1)c1ccccc1)Nn1c(-c2ccccc2)nc2ccccc2c1=O`, the solubility was “Insoluble”.
For `O=C(N/N=C1/C(=O)Nc2ccccc21)Nn1c(-c2ccccc2)nc2ccccc2c1=O`, the solubility was “soluble”.

Test system: Bacillus cereus
Experiment: Antibacterial activity against Bacillus cereus NCIM 2018 after 18 hr by disk diffusion method; note: test concentration or dose not given here
Format: functional
For `CC12CCC(C/C1=N/NC(=O)Nn1c(-c3ccccc3)nc3ccccc3c1=O)C2(C)C` (centres undefined), the “diameter of the inhibition zone (DIZ)” value was 14 mm.
In the case of `O=C(NN=C(c1ccccc1)c1ccccc1)Nn1c(-c2ccccc2)nc2ccccc2c1=O`, the “diameter of the inhibition zone (DIZ)” value was 15 mm.
With `O=C(N/N=C1/C(=O)Nc2ccccc21)Nn1c(-c2ccccc2)nc2ccccc2c1=O` the “diameter of the inhibition zone (DIZ)” value was 12 mm.

Source: ChEMBL document CHEMBL3046426, “Analytical and biological characterization of quinazoline semicarbazone derivatives” (Med Chem Res, 2010)
